“Also recorded” adds a separate entry of the source.
How the values were obtained:
CCRF-CEM cells = test: DIMSCAN cytotoxicity assay, CCRF-CEM; type: cell-based; conditions: 48 hours
Source text: (§1) Cell culture. The pre-T acute lymphoblastic leukemia cell lines MOLT-4 and CCRF-CEM, small cell lung cancer cell line NCI-H146, non-small cell lung cancer cell line NCI-H1792, colon cancer cell lines LoVo and HT-29, and breast cancer cell line MCF-7, were purchased from American Type Culture Collection, Manassas, Va., and grown at 20%/5% and 5%/5%, respectively. COG-LL-317 and COG-LL-332 pre-T acute lymphoblastic leukemia cell lines were obtained from the TTUHSC Cancer Center Cell Repository and grown at 5%/5%. Cell line identities were verified by short tandem repeat analysis and mycoplasma testing was performed. Cell lines were maintained in RPMI-1640 medium supplemented with 10% fetal bovine serum (FBS, Invitrogen) in humidified, 37° C. incubators. […]
(§2) Cytotoxicity Assay. Cytoxicity is determined using the DIMSCAN assay system (R. Proffitt et al., Cytometry 24, 204-213 (1996); T. Frgala et al., Proc. AACR, 36, 303 (1995). The system employs digital imaging microscopy to quantify viable cells, which selectively accumulate fluorescein diacetate to become brightly fluorescent. The system is capable of measuring cytotoxicity over a 4-5 log dynamic range by quenching the residual fluorescence of dead and dying cells with eosin Y and quantifying the total fluorescence of viable cells using digital thresholding. Measured fluorescence is directly proportionate to the number of viable cells. […]

[1] = system: NCI-H146 small cell lung cancer cells; test: DIMSCAN cytotoxicity assay, NCI-H146; type: cell-based, human; conditions: NCI-H146, fatty acid 5 micromolar
Source text: (§3) Cell culture. The pre-T acute lymphoblastic leukemia cell lines MOLT-4 and CCRF-CEM, small cell lung cancer cell line NCI-H146, non-small cell lung cancer cell line NCI-H1792, colon cancer cell lines LoVo and HT-29, and breast cancer cell line MCF-7, were purchased from American Type Culture Collection, Manassas, Va., and grown at 20%/5% and 5%/5%, respectively. COG-LL-317 and COG-LL-332 pre-T acute lymphoblastic leukemia cell lines were obtained from the TTUHSC Cancer Center Cell Repository and grown at 5%/5%. Cell line identities were verified by short tandem repeat analysis and mycoplasma testing was performed. Cell lines were maintained in RPMI-1640 medium supplemented with 10% fetal bovine serum (FBS, Invitrogen) in humidified, 37° C. incubators. For all experiments, ALL cell lines were seeded at […] in RPMI-1640 medium supplemented with 15% fetal bovine serum. Solid tumor cell lines were plated at 5×cells/mL in RPMI-1640 medium supplemented with 10% fetal bovine serum.
(§4) Cytotoxicity Assay. Cytoxicity is determined using the DIMSCAN assay system (R. Proffitt et al., Cytometry 24, 204-213 (1996); T. Frgala et al., Proc. AACR, 36, 303 (1995). The system employs digital imaging microscopy to quantify viable cells, which selectively accumulate fluorescein diacetate to become brightly fluorescent. The system is capable of measuring cytotoxicity over a 4-5 log dynamic range by quenching the residual fluorescence of dead and dying cells with eosin Y and quantifying the total fluorescence of viable cells using digital thresholding. Measured fluorescence is directly proportionate to the number of viable cells.
(§5) In brief, 5,000 to 25,000 cells/well depending on the cell line (5,000 for solid tumor, 25,000 for ALL cell lines) were replicate plated into 60 wells of a 96-well tissue culture plate in 0.1 cc media and allowed to attach or recover overnight. Drug(s) are then added in 0.05 cc media to the final concentrations indicated. […] Total fluorescence of viable cells is then measured by digital imaging microscopy and the signal normalized to control cells. […]

[2] = system: NCI-H1792 non-small cell lung cancer cells; test: DIMSCAN cytotoxicity assay, NCI-H1792; type: cell-based; conditions: NCI-H1792, fatty acid 5 micromolar
Source text: as §3
as §4, with “cells. A comparison of the total fluorescence of a drug-treated cell population to the fluorescence of a similar number of untreated cells yields a survival fraction.” for “cells.”
In brief, 5,000 to 25,000 cells/well depending on the cell line (5,000 for solid tumor, 25,000 for ALL cell lines) were replicate plated into 60 wells of a 96-well tissue culture plate in 0.1 cc media and allowed to attach or recover overnight. […]

[3] = system: pre-T acute lymphoblastic leukemia cell lines CCRF-CEM, MOLT-4, COG-LL-317 and COG-LL-332; test: DIMSCAN cytotoxicity assay across the four pre-T ALL cell lines; type: cell-based, human; conditions: COG-LL-317, COG-LL-332, CCRF-CEM, 4-HPR 0-9 μM, 48 hours
Source text: as §1, §2

reactive oxygen species = test: Reactive oxygen species generation; type: cell-based, human; conditions: C22:0-fatty acid with sphinganine plus GT-11
LoVo colon cancer cells = test: DIMSCAN cytotoxicity assay, LoVo; type: cell-based, human; conditions: fatty acid 5 micromolar
Source text: as §3, §4, §5

CCCCCCCC/C=C\CCCCCCCCCCCC(=O)O [C22:1-fatty acid]
effect of fatty acid addition on sphinganine/GT-11 cytotoxicity (CCRF-CEM cells): did not impart any additional cytotoxicity

CCCCCCCCCCCCCCCCCCCCCC(=O)O [C22:0-fatty acid]
effect of fatty acid on fenretinide cytotoxicity [1]: increased fenretinide cytotoxicity | effect of fatty acid on fenretinide cytotoxicity [2]: increased fenretinide cytotoxicity | effect of fatty acid on fenretinide (4-HPR) cytotoxicity [3]: enhanced; also recorded: significantly increased cytotoxicity | increase of reactive oxygen species (reactive oxygen species): not observed | effect of fatty acid on fenretinide cytotoxicity (LoVo colon cancer cells): increased fenretinide cytotoxicity
